This is an account of results in patent US7368582B2, “Amidomethyl-substituted 2-(4-sulfonylamino)-3-hydroxy-3,4-dihydro-2H-chromen-6-yl compounds, a process and intermediates for their production, and pharmaceutical compositions containing them” (Solvay Pharmaceuticals GmbH, priority 2003, dated 2008).

One experiment concerns the target T1, Kv 1.3-potassium channel (Homo sapiens, UniProt P22001).
T1 construct: expressed in transfected cells; host or cells: CHO cells, stably transfected with the Kv 1.3 plasmid using DMRIE-C
The experiment in a line: In-vitro Kv 1.3-potassium channel-blocking effect (membrane potential-sensitive fluorescent dye in transfected CHO cells). Type of experiment: cell-based. The settings on record: 10 μM test substance; CHO cells transfected with Kv 1.3; relative to reference margatoxin. The text has this: 2. In-Vitro Investigation of the Kv 1.3-Potassium Channel-Blocking Effect of the Substances
In this test model, known oocytes of the Chinese hamster (═CHO) are used which are stably transfected with the Kv 1.3-potassium channel. The blockade of the cell-inherent Kv 1.3-potassium channel activity in the transfected cells is accompanied by a positive shift in the membrane potential from approx. −40 mV to −30 mV, whereas in the wild-type CHO cells investigated in parallel no significant shift in the membrane potential is triggered. A change in the membrane potential is thus connected to the reduction in the Kv 1.3-potassium channel activity. By blocking the Kv 1.3-potassium channels e.g. with substances of Formula I and the resulting change in the membrane potential, an accumulation of a membrane potential-sensitive fluorescent dye in intracellular compartments of the oocytes and ultimately increasing fluorescence occurs. The change in the membrane potential of the oocytes is therefore measured indirectly via the increase in fluorescence of the membrane potential-senstive dyes.
The cells were transfected with the Kv 1.3 plasmid in known manner with a commercially obtainable transfection reagent (DMRIE-C from Gibco BRL, Germany). The successful transfection was verified by immunofluorescence and by “patch-clamp” investigations of the potassium ion current. The fluorescence measurements were performed on a Tecan Safire fluorescence reader from Tecan, Germany. In each case, the increase in the fluorescent intensity caused by the blockade of the Kv 1.3-potassium channels in the oocytes with substances of Formula I in a concentration of 10 μM was determined as characteristic variable. The increase in the fluorescent intensity was given in each case in percent (%) compared with an increase in the fluorescent intensity caused by the reference substance margatoxin. Margatoxin is known as a selective Kv 1.3-potassium channel blocker (see e.g. M. Garcia-Calvo et al., J. Biol. Chem. 268 (1993) 18866-18874).

The next experiment deals with T2, Kv 1.5-potassium channel (Homo sapiens, UniProt P22460).
T2 construct: expressed in transfected cells
T2 sequence (P22460 whole entry): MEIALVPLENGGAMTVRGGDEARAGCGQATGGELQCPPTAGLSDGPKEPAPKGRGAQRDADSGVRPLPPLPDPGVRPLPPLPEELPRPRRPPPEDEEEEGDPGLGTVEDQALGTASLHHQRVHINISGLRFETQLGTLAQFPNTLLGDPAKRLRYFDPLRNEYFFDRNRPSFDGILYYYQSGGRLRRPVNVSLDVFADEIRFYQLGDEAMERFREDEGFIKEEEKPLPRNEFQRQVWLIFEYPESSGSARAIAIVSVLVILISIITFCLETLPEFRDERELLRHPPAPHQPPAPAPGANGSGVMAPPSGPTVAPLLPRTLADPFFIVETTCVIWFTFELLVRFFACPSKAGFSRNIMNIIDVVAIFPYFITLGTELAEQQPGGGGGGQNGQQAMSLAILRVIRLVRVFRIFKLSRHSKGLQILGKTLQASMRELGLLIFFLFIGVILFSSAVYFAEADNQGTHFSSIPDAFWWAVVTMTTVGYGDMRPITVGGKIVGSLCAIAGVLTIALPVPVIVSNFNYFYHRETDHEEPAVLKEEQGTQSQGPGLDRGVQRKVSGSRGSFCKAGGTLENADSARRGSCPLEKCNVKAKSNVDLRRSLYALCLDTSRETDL
As to the kind of experiment: In-vitro Kv 1.5-potassium channel-blocking effect (Rb+ outflow from CHO cells, atomic absorption spectroscopy). Type of experiment: cell-based. Conditions: CHO cells stably expressing Kv 1.5, read-out: IC50 (Kv1.5-potassium channel-blocking effect, concentration of half-maximum inhibition). The procedure:
1. In-Vitro Investigation of the Kv 1.5-Potassium Channel-Blocking Effect of the Substances
In this test model, a cell line of egg cells of the Chinese hamster (=“Chinese hamster oocytes”, “CHO”) is used which originates from a single cell and stably expresses the Kv 1.5-channel. By incubation overnight in a nutrient medium containing RbCl or a “loading buffer” (all values in mM: RbCl 5, NaCl 140, CaCl2 2, MgSO4 1, HEPES buffer 10, glucose 5) the aforementioned oocytes are loaded with Rb^+ under the influence of Na^+/K^+-ATPase. Thereafter, a portion of the oocytes is incubated as a reference standard in the absence of an inhibitor, while another portion of the oocytes is incubated in the presence of the respective inhibitory test substance of Formula I. Then the oocytes are depolarized by increasing the extracellular potassium-ion concentration, which causes the Kv 1.5-potassium channels of the oocytes to open. In the absence of an inhibitor, the Rb^+ ions flow through the Kv 1.5-potassium channels into the liquid surrounding them. In the presence of an inhibitory test substance of Formula I, on the other hand, the Rb^+ ions remain locked within the oocytes. The extent of the Kv 1.5-potassium channel-blocking effect of the test substances of Formula I is determined by measuring the Rb^+ ion concentration in the liquid surrounding them by means of atomic absorption spectroscopy against a reference standard.
Chinese hamster oocytes (see above) were cultivated in a known, RbCl-containing nutrient medium for CHO-cells and placed in the sample wells of a 96-sample capacity sample plate (“96 well plate”). The oocytes were allowed to grow overnight in order to obtain monolayers of the oocytes. Then the nutrient medium was pipetted off, and each sample well was washed three times with 100 μl portions of a preincubation buffer of low potassium-ion concentration (all values in mM: KCl 5, NaCl 140, CaCl2 2, MgSO4 1, HEPES buffer 10, glucose 5). Then 50 μl of a solution of the respective test substance (stock solution in DMSO, dilution with preincubation buffer, final concentration in the test batch 10 μM) or of the solvent (as negative controls) was added to each sample well and incubated for 10 min. in each case at room temperature. Then 50 μl of a stimulation buffer with elevated potassium-ion concentration (KCl 145 mM, NaCl 0 mM, otherwise as preincubation buffer) was added to each sample well and the samples were then incubated for a further 10 min. at room temperature. In each case, 80 μl of the liquid surrounding the oocytes from each sample well was then transferred separately to the sample wells of an analysis sample plate, and the Rb^+ ion concentration in the liquids was determined by atomic absorption spectroscopy. The test substances were each double-tested. The signal section which represented the Kv 1.5 component of the Rb^+ outflow was defined by using as positive control the known potassium channel blocker 4-AP in a high concentration (100×IC50 for the Kv 1.5 channel). This made it possible to determine which portion of the Rb^+ outflow was dependent on the influence of the 4-AP and therefore is to be assigned to the Kv 1.5 channel. For the substances which in the concentration of 10 μM used led to a reduction in the Rb^+ outflow of at least 50%, additional tests were performed with lower concentrations of the test substances in order to be able to determine the half-maximum effective concentration. In each case the concentration of half-maximum inhibition of the test substances of Formula I (IC50) was given as characteristic variable.

For experiment [1], the system named is left atrium of rats' hearts. The experiment in a line: Functional refractory period prolongation on isolated left atria of rats' hearts in vitro. More on the design: species or system rat (Sprague-Dawley). Conditions: 10 μM. As for the experimental part:
3. Investigation of the Functional Effectiveness of the Substances on the Atrium of Rats' Hearts in Vitro
In this test model it is determined to what extent the Kv 1.5-blocking substances of Formula I result in a prolongation of the functional refractory period in the left atrium of rats. The refractory period is the minimum possible elapsed time between the basic stimulus and additional stimulus in which a renewed contraction can be triggered. The extent of the prolongation of the functional refractory period is a measurement of the antiarrhythmic effectiveness of the substances according to the invention. The functional refractory period is determined by testing on the electrically stimulated preparation at what elapsed time from the preceding contraction a renewed contraction can be triggered by additional electrical stimuli.
The hearts were removed from freshly sacrificed rats (Sprague-Dawley, Charles-River, Germany). The left atria were isolated and fastened to force transducers in a temperature-controlled (30° C.), gasified (O2 95%, CO2 5%) organ bath which was filled with modified Tyrode solution (all values in mM: NaCl 137; KCl 2.7; CaCl2 1.8; MgCl2 0.8; NaHCO3 11.9; NaH2PO4 0.6; glucose 5). In order to trigger regular contractions, the preparations were electrically stimulated (rectangular pulses, pulse magnitude 3.5× threshold stimulus, pulse width 1.5 ms, frequency 1 Hz). Initially, the initial value of the functional refractory period was determined by applying extra pulses in addition to the basic stimulus, the elapsed time from the preceding basic stimulus being shortened until no further additional contraction could be triggered. Then the cumulative addition of increasing concentrations (0.1-10 μM) of the substances of Formula I took place at intervals of 20 min. each, the refractory period being determined again in each case 18 min. after the addition had taken place. Before the measurement, stock solutions of the test substances (3.2 and 0.32 mM in 100% DMSO) were prepared. In order to achieve the desired final concentrations of the substances (0.1-10 μM) in the organ bath (volume 100 ml), corresponding volumes of these stock solutions were then poured into the organ bath.
In each case the prolongation of the functional refractory period (FRP) in the left atrium of the rats' hearts in milliseconds observed after the addition of 10 μM of the respective substance of Formula I to the atrial preparations was given as characteristic variable.

T1 sequence (P22001 whole entry): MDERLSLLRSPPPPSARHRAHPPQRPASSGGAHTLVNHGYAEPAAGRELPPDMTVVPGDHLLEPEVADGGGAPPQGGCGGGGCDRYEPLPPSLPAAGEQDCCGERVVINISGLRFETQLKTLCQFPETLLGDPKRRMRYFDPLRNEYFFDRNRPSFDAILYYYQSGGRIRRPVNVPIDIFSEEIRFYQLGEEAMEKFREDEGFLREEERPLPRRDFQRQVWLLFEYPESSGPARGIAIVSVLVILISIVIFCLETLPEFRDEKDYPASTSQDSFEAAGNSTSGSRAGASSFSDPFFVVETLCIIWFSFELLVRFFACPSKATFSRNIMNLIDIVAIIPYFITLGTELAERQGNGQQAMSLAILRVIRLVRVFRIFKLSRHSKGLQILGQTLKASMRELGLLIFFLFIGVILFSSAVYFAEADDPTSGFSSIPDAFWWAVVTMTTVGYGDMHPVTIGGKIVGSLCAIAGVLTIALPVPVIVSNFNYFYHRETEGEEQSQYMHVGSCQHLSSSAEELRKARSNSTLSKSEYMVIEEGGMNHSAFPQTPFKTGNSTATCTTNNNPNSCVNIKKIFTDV

With `CCCCNC(=O)Cc1ccc2c(c1)C(NS(=O)(=O)c1ccc(I)cc1)C(O)C(C)(C)O2` (stereo not shown) [Example 17], the “Increase in the fluorescent intensity (% margatoxin)” value (shortened to “Increase … (% margatoxin)”) at Kv 1.3-potassium channel is 72 % margatoxin. Further, at Kv 1.5-potassium channel, the IC50 turned out to be 2.65 µM. On to `CC(C)CCN(C1c2cc(CC(=O)NCc3ccccc3)ccc2OC(C)(C)C1O)S(=O)(=O)c1ccc2ccccc2c1` (stereo not shown) [Example 25], for which the IC50 on Kv 1.5-potassium channel came to 5.2 µM. Take `Cc1ccc(S(=O)(=O)NC2c3cc(CC(=O)NC4CCCc5ccccc54)ccc3OC(C)(C)C2O)cc1` (mixture of isomers) [Example 15]: at Kv 1.5-potassium channel, the IC50 was 4 µM. In experiment [1], this compound registered an FRP prolongation of 30 ms.

`Cc1ccc(S(=O)(=O)N(CCC(C)C)C2c3cc(CC(=O)NCc4ccccc4)ccc3OC(C)(C)C2O)cc1` (stereo not shown) [Example 19]: on Kv 1.3-potassium channel, the “Increase … (% margatoxin)” value was 171 % margatoxin. For the same compound, the IC50 on Kv 1.5-potassium channel was 2.5 µM. On to `CCCCCN(C1c2cc(CC(=O)NC(C)C(C)C)ccc2OC(C)(C)C1O)S(=O)(=O)c1cccc(OC)c1` (stereo not shown) [Example 22], for which the “Increase … (% margatoxin)” value on Kv 1.3-potassium channel was 71 % margatoxin. For the same compound, the IC50 on Kv 1.5-potassium channel stood at 3.4 µM. In the case of `COc1cccc(S(=O)(=O)N(CCC(C)C)C2c3cc(CC(=O)NCc4ccc(Cl)cc4)ccc3OC(C)(C)C2O)c1` (stereo not shown) [Example 27], the IC50 on Kv 1.5-potassium channel was determined as 5.6 µM. For the compound `CCC(CC)CN(C1c2cc(CC(=O)NCc3ccco3)ccc2OC(C)(C)C1O)S(=O)(=O)c1cc(OC)ccc1OC` (stereo not shown) [Example 21], the “Increase … (% margatoxin)” value on Kv 1.3-potassium channel amounted to 86 % margatoxin. The IC50 at Kv 1.5-potassium channel was determined as 3.3 µM. The like results for `Cc1cccc(S(=O)(=O)NC2c3cc(CC(=O)NCc4ccc(Cl)cc4)ccc3OC(C)(C)C2O)c1` (stereo not shown) [Example 5, N-(4-chlorobenzyl)-2-(3-hydroxy-2,2-dimethyl-4-{[(3-methylphenyl)sulfonyl]amino}-3,4-dihydro-2H-chromen-6-yl)acetamide] were, in that order, 82 % margatoxin and 5 µM. With `CCCNC(=O)Cc1ccc2c(c1)C(N(CC(C)C)S(=O)(=O)c1ccc(F)c(Cl)c1)C(O)C(C)(C)O2` (stereo not shown) [Example 24], the IC50 on Kv 1.5-potassium channel came to 5 µM. Take `CCCNC(=O)Cc1ccc2c(c1)C(N(CCC(C)C)S(=O)(=O)c1ccc(-c3ccccc3)cc1)C(O)C(C)(C)O2` (stereo not shown) [Example 26]: on Kv 1.5-potassium channel, the IC50 was 5.2 µM.

As for `Cc1ccc(S(=O)(=O)N(CC2CC2)C2c3cc(CC(=O)NCc4ccccc4)ccc3OC(C)(C)C2O)cc1` (stereo not shown) [Example 18], the “Increase … (% margatoxin)” value on Kv 1.3-potassium channel was 141 % margatoxin. The IC50 on Kv 1.5-potassium channel is 2.7 µM. With `CC(C)CCN(C1c2cc(CC(=O)NCc3ccccc3)ccc2OC(C)(C)C1O)S(=O)(=O)c1ccc(C(F)(F)F)cc1` (stereo not shown) [Example 23], at Kv 1.3-potassium channel, the “Increase … (% margatoxin)” value is 41 % margatoxin. Also, at Kv 1.5-potassium channel, the IC50 worked out at 4.3 µM.

For the compound `CCCCNC(=O)Cc1ccc2c(c1)C(N(CC(CC)CC)S(=O)(=O)c1cc(OC)ccc1OC)C(O)C(C)(C)O2` (stereo not shown) [Example 6], on Kv 1.3-potassium channel, the “Increase … (% margatoxin)” value turned out to be 97 % margatoxin. The IC50 on Kv 1.5-potassium channel turned out to be 2.9 µM.
